Data on 39 compounds can be found in patent US20230075856A1, “CYCLIC SULFAMIDE COMPOUNDS FOR TREATMENT OF HBV” (Assembly Biosciences, Inc., priority 2018, published 2023).

Molecules are shown by their SMILES.

The test system of the first assay is HBV viral load production from HepAD38 cells. Description: Viral production from HepAD38 cells: viral load in supernatant by qPCR of the HBV core sequence. The class given is cell-based. To be noted: 5 days incubation, qPCR of supernatant HBV DNA vs DMSO control, read-out: viral load lowering EC50 (Activity). Summed up: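 Viral load was measured by qPCR of the HBV core region in supernatant, quantified against DNA standards and compared with DMSO wells. Cells (50,000/well, tetracycline withdrawn, 2% FBS) received compound from 10 μM final for 5 days; EC50 from four-parameter nonlinear regression.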
For orientation: In qPCR the cycle at which signal appears reflects the starting amount.
Broadly, the EC50 is the concentration giving half of the maximal effect. Take `CN1C(C(=O)Nc2ccc(F)c(Cl)c2)CC(C(=O)NCc2ncc(-c3ccccc3)s2)NS1(=O)=O` (single isomer, unassigned) [Compound 931-ISOMER-B, N3-(3-chloro-4-fluoro-phenyl)-2-methyl-1,1-dioxo-N5-[(5-phenylthiazol-2-yl)methyl]-1,2,6-thiadiazinane-3,5-dicarboxamide]: the EC50 is less than 50 nM.
On the same count and under the same terms, then `Cc1cn(-c2ccc(F)cc2)nc1CNC(=O)C1CC(C(=O)Nc2ccc(F)c(Cl)c2)N(C)S(=O)(=O)N1` (single isomer, unassigned) [1141-ISOMER-B, N3-(3-chloro-4-fluoro-phenyl)-N5-[[1-(4-fluorophenyl)-4-methyl-pyrazol-3-yl]methyl]-2-methyl-1,1-dioxo-1,2,6-thiadiazinane-3,5-dicarboxamide], with 100 to 10000 nM; and `CN1C(C(=O)Nc2ccc(F)c(Cl)c2)CC(C(=O)NCc2cnc(Cl)s2)NS1(=O)=O` (single isomer, unassigned) [1199-ISOMER-B, N3-(3-chloro-4-fluoro-phenyl)-N5-[(2-chlorothiazol-5-yl)methyl]-2-methyl-1,1-dioxo-1,2,6-thiadiazinane-3,5-dicarboxamide], with 100 to 10000 nM.
Regarding `Cc1nc(-c2ccc(F)cc2F)sc1CNC(=O)C1CC(C(=O)Nc2ccc(F)c(Cl)c2)N(C)S(=O)(=O)N1` (single isomer, unassigned; isomer-b) [1083-ISOMER-B, N3-(3-chloro-4-fluoro-phenyl)-N5-[[2-(2,4-difluroophenyl)-4-methyl-thiazol-5-yl]methyl]-2-methyl-1,1-dioxo-1,2,6-thiadiazinane-3,5-dicarboxamide], the EC50 is 100 to 10000 nM.
Same read-out and setting: then `CN1C(C(=O)Nc2ccc(F)c(Cl)c2)CC(C(=O)NCc2cnc(-c3ccc(F)cc3)s2)NS1(=O)=O` (single isomer, unassigned) [Compound 916-ISOMER-B, N3-(3-chloro-4-fluoro-phenyl)-N5-[[2-(4-fluorophenyl)thiazol-5-yl]methyl]-2-methyl-1,1-dioxo-1,2,6-thiadiazinane-3,5-dicarboxamide], with less than 50 nM; and `CN1C(C(=O)Nc2ccc(F)c(Cl)c2)CC(C(=O)NCc2cnc(-c3ccc(O)cc3)s2)NS1(=O)=O` (single isomer, unassigned; isomer-a) [Compound 924-ISOMER-A, N3-(3-chloro-4-fluroo-phenyl)-N5-[[2-(4-hydroxyphenyl)thiazol-5-yl]methyl]-2-methyl-1,1-dioxo-1,2,6-thiadiazinane-3,5-dicarboxamide], with 100 to 10000 nM; and `CN1C(C(=O)Nc2ccc(F)c(Cl)c2)CC(C(=O)NCc2cc(-c3ccc(F)cc3)n(C)n2)NS1(=O)=O` (single isomer, unassigned) [1151-ISOMER-B, N3-(3-chloro-4-fluoro-phenyl)-N5-[[5-(4-fluorophenyl)-1-methyl-pyrazol-3-yl]methyl]-2-methyl-1,1-dioxo-1,2,6-thiadiazinane-3,5-dicarboxamide], with 100 to 10000 nM.
Turning to `CCN1C(C(=O)Nc2ccc(F)c(Cl)c2)CC(C(=O)NCc2cnc(C)s2)NS1(=O)=O` (single isomer, unassigned) [Compound 888-ISOMER-B, N3-(3-chloro-4-fluoro-phenyl)-2-ethyl-N5-[(2-methylthiazol-5-yl)methyl]-1,1-dioxo-1,2,6-thiadiazinane-3,5-dicarboxamide], the EC50 is less than 50 nM.
Turning to `CN1C(C(=O)Nc2ccc(F)c(Cl)c2)CC(C(=O)NCC2CCCCC2)NS1(=O)=O` (single isomer, unassigned) [1160-ISOMER-B, N3-(3-chloro-4-fluoro-phenyl)-N5-(cyclohexylmethyl)-2-methyl-1,1-dioxo-1,2,6-thiadiazinane-3,5-dicarboxamide], the EC50 is 100 to 10000 nM.
As for `Cc1nc(-c2ccccn2)sc1CNC(=O)C1CC(C(=O)Nc2ccc(F)c(Cl)c2)N(C)S(=O)(=O)N1` (single isomer, unassigned) [1065-ISOMER-B, N3-(3-chloro-4-fluoro-phenyl)-2-methyl-N5-[[4-methyl-2-(2-pyridyl)thiazol-5-yl]methyl]-1,1-dioxo-1,2,6-thiadiazinane-3,5-dicarboxamide], the EC50 is less than 50 nM.
On the same count and under the same terms, then `Cc1cc(CNC(=O)C2CC(C(=O)Nc3ccc(F)c(Cl)c3)N(C)S(=O)(=O)N2)n(C)n1` (single isomer, unassigned) [Compound 482-ISOMER-B, N3-(3-chloro-4-fluoro-phenyl)-N5-[(2,5-dimethylpyrazol-3-yl)methyl]-2-methyl-1,1-dioxo-1,2,6-thiadiazinane-3,5-dicarboxamide], with 100 to 10000 nM.

Still in this assay, the particulars now being: Hepatitis B virus, HePAD38, 120 h, 5 days incubation, qPCR of supernatant HBV DNA vs DMSO control, read-out: viral load lowering EC50 (Activity).
`CN1C(C(=O)Nc2ccc(F)c(Cl)c2)CC(C(=O)NCc2cnc(-c3cccnc3)s2)NS1(=O)=O` (stereo not drawn) [Compound 911]: the EC50 fell in the range of 50 to 100 nM.
In the case of `COc1cccc(CNC(=O)C2CC(C(=O)Nc3ccc(F)c(Cl)c3)N(C)S(=O)(=O)N2)c1` (stereo not drawn) [Compound 721], the EC50 is less than 50 nM.
In the case of `C[C@H](NC(=O)C1CC(C(=O)Nc2ccc(F)c(Cl)c2)N(C)S(=O)(=O)N1)c1ccc(C(F)(F)F)cc1` (single isomer, unassigned) [493-S-ISOMER-A], the EC50 was less than 50 nM.
`Cc1nc(-c2ccccc2)sc1CNC(=O)C1CC(C(=O)Nc2ccc(F)c(C#N)c2)N(C)S(=O)(=O)N1` (stereo not drawn) [Compound 1136]: the half-maximal effective concentration (EC50) was less than 50 nM.
As to `CC(NC(=O)C1CC(C(=O)Nc2ccc(F)c(Cl)c2)N(C)S(=O)(=O)N1)c1csc(Cl)n1` (stereo not drawn) [Compound 1007], the EC50 was less than 50 nM.
Same read-out and setting: next, `Cc1cc(CNC(=O)C2CC(C(=O)Nc3ccc(F)c(Cl)c3)N(C)S(=O)(=O)N2)n(C)n1` (stereo not drawn) [Compound 482]: less than 50 nM; `CN1C(C(=O)Nc2ccc(F)c(Cl)c2)CC(C(=O)NCc2sc(Cl)nc2C(F)(F)F)NS1(=O)=O` (stereo not drawn) [Compound 1062]: 50 to 100 nM.
As for `COCCN1C(C(=O)Nc2ccc(F)c(Cl)c2)CC(C(=O)NC2CCN(C(=O)OC)CC2)NS1(=O)=O` (stereo not drawn) [Compound 896], the EC50 was in the range of 100 to 10000 nM.
Same read-out and setting: next, `Cc1cc(CNC(=O)C2CC(C(=O)Nc3ccc(F)c(Cl)c3)N(C)S(=O)(=O)N2)on1` (stereo not drawn) [Compound 489]: 50 to 100 nM; `CN1C(C(=O)Nc2ccc(F)c(Cl)c2)CC(C(=O)NCc2cc(-c3ccccc3Cl)no2)NS1(=O)=O` (stereo not drawn) [Compound 1025]: less than 50 nM.
For the compound `COC(=O)N1CCC(NC(=O)C2CC(C(=O)Nc3ccc(F)c(C#N)c3)N(C)S(=O)(=O)N2)CC1` (stereo not drawn) [Compound 770], the EC50 lay in the range of 50 to 100 nM.
Take `CN1C(C(=O)Nc2ccc(F)c(Cl)c2)CC(C(=O)NCc2cnc(-c3ccc(F)cc3)s2)NS1(=O)=O` (single isomer, unassigned) [Compound 916-ISOMER-A, N3-(3-chloro-4-fluoro-phenyl)-N5-[[2-(4-fluorophenyl)thiazol-5-yl]methyl]-2-methyl-1,1-dioxo-1,2,6-thiadiazinane-3,5-dicarboxamide]: the EC50 was 100 to 10000 nM.
For `CN1C(C(=O)Nc2ccc(F)c(Cl)c2)CC(C(=O)NC2CC2c2ccccc2)NS1(=O)=O` (stereo not drawn) [Compound 476], the EC50 lay within 50 to 100 nM.
The same measure, in the same setting: then `CN1C(C(=O)Nc2ccc(F)c(Cl)c2)CC(C(=O)NCc2cc(-c3ccccc3)on2)NS1(=O)=O` (stereo not drawn) [Compound 1149], with less than 50 nM; and `Cc1ccccc1-c1nc(C)c(CNC(=O)C2CC(C(=O)Nc3ccc(F)c(Cl)c3)N(C)S(=O)(=O)N2)s1` (stereo not drawn) [Compound 1017], with less than 50 nM; and `Cc1ccnc(N2CCC(NC(=O)C3CC(C(=O)Nc4ccc(F)c(Cl)c4)N(C)S(=O)(=O)N3)CC2)c1` (stereo not drawn) [Compound 971], with less than 50 nM.
`CN1C(C(=O)Nc2ccc(F)c(Cl)c2)CC(C(=O)NCC2CCCCC2)NS1(=O)=O` (stereo not drawn) [Compound 1160]: the half-maximal effective concentration (EC50) was in the range of 100 to 10000 nM.
Turning to `Cc1nc(CNC(=O)C2CC(C(=O)Nc3ccc(F)c(Cl)c3)N(C)S(=O)(=O)N2)sc1-c1ccccc1Cl` (stereo not drawn) [Compound 1071], the EC50 is less than 50 nM.
With `CN1C(C(=O)Nc2ccc(F)c(Cl)c2)CC(C(=O)NC2CCN(c3ccnc(-c4ccccc4)c3)CC2)NS1(=O)=O` (stereo not drawn) [Compound 1050], the EC50 is less than 50 nM.
Regarding `CN1C(C(=O)Nc2ccc(F)c(Cl)c2)CC(C(=O)NC2CCOCC2)NS1(=O)=O` (stereo not drawn) [Compound 738], the EC50 lay in the range of 50 to 100 nM.
Same read-out and setting: next, `CN1C(C(=O)Nc2ccc(F)c(Cl)c2)CC(C(=O)NC2CCN(C(=O)OC(C)(C)C)C2)NS1(=O)=O` (stereo not drawn) [Compound 1081]: 100 to 10000 nM; `CN1C(C(=O)Nc2ccc(F)c(Cl)c2)CC(C(=O)NC2CCN(c3ccnc(C4CC4)c3)CC2)NS1(=O)=O` (stereo not drawn) [Compound 1051]: less than 50 nM; `CN1C(C(=O)Nc2ccc(F)c(Cl)c2)CC(C(=O)NCc2csc(-c3ccc(OCCN4CCCCC4)cc3)n2)NS1(=O)=O` (single isomer, unassigned) [Compound 957-ISOMER-A, N3-(3-chloro-4-fluoro-phenyl)-2-methyl-1,1-dioxo-N5-[[2-[4-[2-(1-piperidyl)ethoxy]phenyl]thiazol-4-yl]methyl]-1,2,6-thiadiazinane-3,5-dicarboxamide]: less than 50 nM.
On to `Cc1ccccc1CNC(=O)C1CC(C(=O)Nc2ccc(F)c(Cl)c2)N(C)S(=O)(=O)N1` (stereo not drawn) [Compound 817], for which the EC50 was less than 50 nM.
For the compound `COc1ccc(CNC(=O)C2CC(C(=O)Nc3ccc(F)c(C#N)c3)N(C)S(=O)(=O)N2)cc1` (stereo not drawn) [Compound 832], the EC50 lay in the range of 50 to 100 nM.
Still for that read-out and setting: next, `Cc1c(CNC(=O)C2CC(C(=O)Nc3ccc(F)c(Cl)c3)N(C)S(=O)(=O)N2)cnn1C` (stereo not drawn) [Compound 740]: less than 50 nM; `CN1C(C(=O)Nc2ccc(F)c(Cl)c2)CC(C(=O)NCc2ccc(Cl)cc2)NS1(=O)=O` (single isomer, unassigned) [Compound 729-ISOMER-A, N3-(3-chloro-4-fluoro-phenyl)-N5-[(4-chlorophenyl)methyl]-2-methyl-1,1-dioxo-1,2,6-thiadiazinane-3,5-dicarboxamide]: less than 50 nM; `CCN1CCC(Oc2ccc(-c3ncc(CNC(=O)C4CC(C(=O)Nc5ccc(F)c(Cl)c5)N(C)S(=O)(=O)N4)s3)cc2)CC1` (stereo not drawn) [Compound 921]: 50 to 100 nM.
